From patent US20250019346A1, “Salts of Ruxolitinib and Crystalline Forms Thereof” (Apotex Inc., priority 2021, published 2025)
Where two headings read alike, the source gives them in different places.

Columns and labels:
[1] = Comparative intrinsic dissolution testing (Wood apparatus); format: physicochemical; conditions: 900 mL deionized water, 75 rpm, sample compressed at 1.5 metric tons for 1 minute
Procedure: Intrinsic dissolution rate (IDR) measurements were performed using a Wood apparatus. Samples were prepared by compressing 250-300 mg sample at 1.5 metric tons for 1 minute. A dissolution medium consisting of 900 mL deionized water, and rotation speed of 75 rpm, was used for each experiment.

[2] = uncapped samples, 40° C./75% RH
Procedure: PXRD diffractograms were recorded on a Bruker D8 Discover powder X-ray diffractometer (Bruker AXS LLC, Karlsruhe, Germany). The generator was a Incoatec Microfocus Source (IμS) Cu tube (λ=1.54060 Å) with a voltage of 50 kV and current of 1.00 mA, using a divergence slit of 0.1 mm and collimator of 2.0 mm. For each sample, two frames were collected using a still scan with a PILATUS3 R 100K-A detector at the distance of 294.2 mm from the sample. Raw data were evaluated using the program DIFFRAC.EVA (Bruker AXS LLC, Karlsruhe, Germany).

[3] = pH values 1.2, 4.5 and 6.8
[4] = per CDER review, NDA 202192; cited from earlier work

Structure (SMILES)	Intrinsic Dissolution Rate [1] [mg min^−1 cm^−2]	Change in the crystalline form (PXRD) ([2]; at least 5 months)	also measured
CC1=CC(=O)NS(=O)(=O)O1.N#CCC(C1CCCC1)n1cc(-c2ncnc3[nH]ccc23)cn1 (stereo not shown) [Ruxolitinib acesulfamate Form APO-II]	0.0767	no change in the crystalline form occurred	
CC1=CC(=O)NS(=O)(=O)O1.N#CC[C@H](C1CCCC1)n1cc(-c2ncnc3[nH]ccc23)cn1 [Ruxolitinib acesulfamate Form APO-I]	0.2261		Change in the crystalline form (PXRD) ([2]; 8 weeks): no change in the crystalline form occurred
N#CCC(C1CCCC1)n1cc(-c2ncnc3[nH]ccc23)cn1.O=S(=O)(O)CCS(=O)(=O)O (stereo not shown) [Ruxolitinib edisylate Form APO-I]	0.1711	no change in the crystalline form occurred	
CS(=O)(=O)O.N#CC[C@H](C1CCCC1)n1cc(-c2ncnc3[nH]ccc23)cn1 [Ruxolitinib mesylate Form APO-I]			Solubility [3]: high solubility; Change in the crystalline form (PXRD) ([2]; at least 8 months): no change in the crystalline form occurred
N#CCC(C1CCCC1)n1cc(-c2ncnc3[nH]ccc23)cn1.O=S(=O)(O)c1cccc2c(S(=O)(=O)O)cccc12 (stereo not shown) [Ruxolitinib napadisylate Form APO-I]		no change in the crystalline form occurred	
N#CC[C@H](C1CCCC1)n1cc(-c2ncnc3[nH]ccc23)cn1 [Ruxolitinib phosphate]	0.0545		Biopharmaceutics Classification System (BCS) class [4]: Class I; Permeability [4]: high permeability; Solubility [4]: high solubility
